Reference: publication PMC5026608 (ACS chemical biology, 2016)

Molecular target: hMAT2A (Homo sapiens, UniProt P31153)
Assay: RP-HPLC of AdoMet product formation
Type: biochemical
Details: read-out: Km μmol L^-1; saturating ATP 2 mM; 25 mM Tris pH 8.0, 10 mM MgCl2, 50 mM KCl; 37 °C; text prints error ± 27

hMAT2A, sequence (P31153 whole entry): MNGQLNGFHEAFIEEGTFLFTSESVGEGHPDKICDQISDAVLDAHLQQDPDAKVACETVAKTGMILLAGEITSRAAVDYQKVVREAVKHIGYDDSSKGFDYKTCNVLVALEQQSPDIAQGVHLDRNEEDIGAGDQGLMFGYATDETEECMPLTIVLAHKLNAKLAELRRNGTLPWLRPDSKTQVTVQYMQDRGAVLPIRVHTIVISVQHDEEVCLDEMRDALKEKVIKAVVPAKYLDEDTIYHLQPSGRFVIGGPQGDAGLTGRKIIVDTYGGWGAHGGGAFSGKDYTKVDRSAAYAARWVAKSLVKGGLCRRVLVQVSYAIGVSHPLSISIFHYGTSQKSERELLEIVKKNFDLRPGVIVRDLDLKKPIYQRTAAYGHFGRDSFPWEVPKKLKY

In the case of `CSCC[C@H](N)C(=O)O` [LMet], the Km is reported as 397 ± 29 µM.
